# Values quoted from earlier work as cited in US11039615B2, “Methods of processing chlorhexidine-containing polymerizable compositions and antimicrobial articles formed thereby” (entrotech life sciences, inc., priority 2014, dated 2021).
# Details: documented in Ranganathan 1996
structure (smiles),measurement,value
[H]/N=C(\N/C(=N/[H])NCCCCCCNC(=N)NC(=N)Nc1ccc(Cl)cc1)Nc1ccc(Cl)cc1 [chlorhexidine],temperature at which chlorhexidine decomposes to PCA,≥ 40 °C
